Data taken from ChEMBL document CHEMBL1275596, “Prevalence of fosfomycin resistance among CTX-M-producing Escherichia coli clinical isolates in Japan and identification of novel plasmid-mediated fosfomycin-modifying enzymes” (2010).
Values after ≈ are worked out from the molar mass of the structure shown.

How the values were obtained:
Assay type in all cases: functional
Escherichia coli [1] = assay: Antimicrobial activity against beta-lactamase CTX-M-producing Escherichia coli isolate 05-690 harboring uhpA stop codon at amino acid at 144 by agar dilution method
Escherichia coli [2] = assay: Antimicrobial activity against beta-lactamase CTX-M-producing Escherichia coli isolate 05-244 harboring glpT gene with 328[14-bp duplication]343, uhpT gene with 1173[96-bp deletion]1270 by agar dilution method
Escherichia coli [3] = assay: Antimicrobial activity against rifampin-, nalidixic acid resistant Escherichia coli CSH-2 by agar dilution method
Escherichia coli [4] = assay: Antimicrobial activity against beta-lactamase CTX-M-producing Escherichia coli isolate 06-607 by agar dilution method
Escherichia coli [5] = assay: Antimicrobial activity against beta-lactamase CTX-M-producing Escherichia coli isolate 03-285 by agar dilution method
Escherichia coli [6] = assay: Antimicrobial activity against beta-lactamase CTX-M-producing Escherichia coli isolate 03-287 harboring glpT gene with 405[5-bp duplication]411 by agar dilution method
Escherichia coli [7] = assay: Antimicrobial activity against Escherichia coli CSH-2 conjugant of strain C316 by agar dilution method
Escherichia coli [8] = assay: Antimicrobial activity against beta-lactamase CTX-M-producing Escherichia coli isolate 08-642 by agar dilution method
Escherichia coli [9] = assay: Antimicrobial activity against beta-lactamase CTX-M-producing Escherichia coli isolate 03-271 by agar dilution method
Escherichia coli [10] = assay: Antimicrobial activity against beta-lactamase CTX-M-producing Escherichia coli isolate 08-555 harboring glpT gene with 981[227-bp deletion]1209 by agar dilution method
Escherichia coli [11] = assay: Antimicrobial activity against beta-lactamase CTX-M-producing Escherichia coli isolate 03-286 harboring glpT gene with 405[5-bp duplication]411 by agar dilution method
Escherichia coli [12] = assay: Antimicrobial activity against Escherichia coli DH10B transformant containing Kpn1 fragment with fosA3 gene from 08-642 by agar dilution method
Escherichia coli [13] = assay: Antimicrobial activity against Escherichia coli DH10B transformant containing Sac2 fragment with fosC2 gene from pHPA by agar dilution method
Escherichia coli [14] = assay: Antimicrobial activity against Escherichia coli CSH-2 conjugant of strain 08-607 by agar dilution method
Escherichia coli [15] = assay: Antimicrobial activity against Escherichia coli CSH-2 conjugant of strain 08-642 by agar dilution method
Escherichia coli [16] = assay: Antimicrobial activity against Escherichia coli DH10B transformant containing Sac2 fragment with fosA3 gene from 08-607 by agar dilution method
Escherichia coli [17] = assay: Antimicrobial activity against beta-lactamase CTX-M-producing Escherichia coli isolate C316 by agar dilution method
Escherichia coli [18] = assay: Antimicrobial activity against streptomycin-, chloramphenicol-resistant pBCKS positive Escherichia coli DH10B transformant by agar dilution method
Escherichia coli [19] = assay: Antimicrobial activity against streptomycin-, chloramphenicol-resistant pBCKS positive Escherichia coli DH10B transformant
Escherichia coli [20] = assay: Antimicrobial activity against Escherichia coli DH10B transformant containing Kpn1 fragment with fosA3 gene from 08-642
Escherichia coli [21] = assay: Antimicrobial activity against beta-lactamase CTX-M-producing Escherichia coli isolate C316
Escherichia coli [22] = assay: Antimicrobial activity against beta-lactamase CTX-M-producing Escherichia coli isolate 08-642
Escherichia coli [23] = assay: Antimicrobial activity against Escherichia coli DH10B transformant containing Sac2 fragment with fosC2 gene from pHPA
Escherichia coli [24] = assay: Antimicrobial activity against beta-lactamase CTX-M-producing Escherichia coli isolate 03-287 harboring glpT gene with 405[5-bp duplication]411
Escherichia coli [25] = assay: Antimicrobial activity against beta-lactamase CTX-M-producing Escherichia coli isolate 08-555 harboring glpT gene with 981[227-bp deletion]1209
Escherichia coli [26] = assay: Antimicrobial activity against rifampin-, nalidixic acid resistant Escherichia coli CSH-2
Escherichia coli [27] = assay: Antimicrobial activity against beta-lactamase CTX-M-producing Escherichia coli isolate 05-244 harboring glpT gene with 328[14-bp duplication]343, uhpT gene with 1173[96-bp deletion]1270
Escherichia coli [28] = assay: Antimicrobial activity against beta-lactamase CTX-M-producing Escherichia coli isolate 06-607
Escherichia coli [29] = assay: Antimicrobial activity against Escherichia coli CSH-2 conjugant of strain 08-642
Escherichia coli [30] = assay: Antimicrobial activity against beta-lactamase CTX-M-producing Escherichia coli isolate 03-286 harboring glpT gene with 405[5-bp duplication]411
Escherichia coli [31] = assay: Antimicrobial activity against Escherichia coli DH10B transformant containing Sac2 fragment with fosA3 gene from 08-607
Escherichia coli [32] = assay: Antimicrobial activity against beta-lactamase CTX-M-producing Escherichia coli isolate 03-271
Escherichia coli [33] = assay: Antimicrobial activity against Escherichia coli CSH-2 conjugant of strain 08-607
Escherichia coli [34] = assay: Antimicrobial activity against Escherichia coli CSH-2 conjugant of strain C316
Escherichia coli [35] = assay: Antimicrobial activity against beta-lactamase CTX-M-producing Escherichia coli isolate 05-690 harboring uhpA stop at amino acid at 144
Escherichia coli [36] = assay: Antimicrobial activity against beta-lactamase CTX-M-producing Escherichia coli isolate 03-285

C[C@@H]1O[C@@H]1P(=O)(O)O [FOSFOMYCIN]
MIC (Escherichia coli [1]): 64 µg/mL (≈ 464 µM) | MIC (Escherichia coli [2]): 128 µg/mL (≈ 927 µM) | MIC (Escherichia coli [3]): 1 µg/mL (≈ 7.24 µM) | MIC (Escherichia coli [4]): > 256 µg/mL | MIC (Escherichia coli [5]): 128 µg/mL (≈ 927 µM) | MIC (Escherichia coli [6]): > 256 µg/mL | MIC (Escherichia coli [7]): > 256 µg/mL | MIC (Escherichia coli [8]): > 256 µg/mL | MIC (Escherichia coli [9]): 64 µg/mL (≈ 464 µM) | MIC (Escherichia coli [10]): > 256 µg/mL | MIC (Escherichia coli [11]): 64 µg/mL (≈ 464 µM) | MIC (Escherichia coli [12]): > 256 µg/mL | MIC (Escherichia coli [13]): > 256 µg/mL | MIC (Escherichia coli [14]): > 256 µg/mL | MIC (Escherichia coli [15]): > 256 µg/mL | MIC (Escherichia coli [16]): > 256 µg/mL | MIC (Escherichia coli [17]): 256 µg/mL (≈ 1850 µM) | MIC (Escherichia coli [18]): 0.5 µg/mL (≈ 3.62 µM)

CO/N=C(\C(=O)N[C@@H]1C(=O)N2C(C(=O)O)=C(COC(C)=O)CS[C@H]12)c1csc(N)n1 [CEFOTAXIME]
MIC (Escherichia coli [19]): ≤ 0.06 µg/mL | MIC (Escherichia coli [20]): ≤ 0.06 µg/mL | MIC (Escherichia coli [21]): 128 µg/mL (≈ 281 µM) | MIC (Escherichia coli [22]): 64 µg/mL (≈ 141 µM) | MIC (Escherichia coli [23]): ≤ 0.06 µg/mL | MIC (Escherichia coli [24]): 128 µg/mL (≈ 281 µM) | MIC (Escherichia coli [25]): > 128 µg/mL | MIC (Escherichia coli [26]): ≤ 0.06 µg/mL | MIC (Escherichia coli [27]): > 128 µg/mL | MIC (Escherichia coli [28]): 16 µg/mL (≈ 35.1 µM) | MIC (Escherichia coli [29]): 128 µg/mL (≈ 281 µM) | MIC (Escherichia coli [30]): > 128 µg/mL | MIC (Escherichia coli [31]): ≤ 0.06 µg/mL | MIC (Escherichia coli [32]): 32 µg/mL (≈ 70.3 µM) | MIC (Escherichia coli [33]): 32 µg/mL (≈ 70.3 µM) | MIC (Escherichia coli [34]): 64 µg/mL (≈ 141 µM) | MIC (Escherichia coli [35]): 64 µg/mL (≈ 141 µM) | MIC (Escherichia coli [36]): > 128 µg/mL
